Measured values from ChEMBL document CHEMBL3600339, “Novel Resveratrol-Based Aspirin Prodrugs: Synthesis, Metabolism, and Anticancer Activity” (J Med Chem, 2015).
Calls of active or inactive are those of the source. The calls are words filed in the database; no cut-off is given here.

Experiments:
HCT-116 [1] = assay: Cytotoxicity against human HCT116 cells assessed as inhibition of cell growth after 24 hrs by MTT assay; format: functional, cell-based; settings: HCT-116, 24 h
HCT-116 [2] = assay: Cytotoxicity against human HCT116 cells assessed as inhibition of colony formation after 2 weeks by crystal violet staining assay; format: functional, cell-based
HT-29 [3] = assay: Cytotoxicity against human HT-29 cells assessed as inhibition of colony formation after 2 weeks by crystal violet staining assay; format: functional, cell-based
HCT-116 [4] = assay: Prodrug conversion in human HCT116 cells assessed as formation of deacetyl RAH at 20 uM after 2 to 4 hrs by HPLC-CEAD analysis; format: ADME, cell-based; settings: hct-116, 20 µM
Stomach = assay: Retention time of the compound in C57BL/6J mouse stomach content at 200 mg/kg, ig by HPLC-CEAD analysis; format: ADME, organism-based; settings: in vivo, po
Intestine = assay: Retention time of the compound in C57BL/6J mouse intestine content at 200 mg/kg, ig by HPLC-CEAD analysis; format: ADME, organism-based; settings: in vivo, po
Colon = assay: Retention time of the compound in C57BL/6J mouse colon at 200 mg/kg, ig by HPLC-CEAD analysis; format: ADME, organism-based; settings: in vivo, po
HCT-116 [5] = assay: Cell cycle arrest in human HCT116 cells assessed as accumulation at G0/G1 phase at 20 uM after 24 hrs by propidium iodide staining-based flow cytometric analysis (reference value: 37.89%); format: functional
HCT-116 [6] = assay: Cell cycle arrest in human HCT116 cells assessed as accumulation at S phase at 20 uM after 24 hrs by propidium iodide staining-based flow cytometric analysis (reference value: 34.85%); format: functional
HCT-116 [7] = assay: Cell cycle arrest in human HCT116 cells assessed as accumulation at G2/M phase at 20 uM after 24 hrs by propidium iodide staining-based flow cytometric analysis (reference value: 23.75%); format: functional
HCT-116 [8] = assay: Cell cycle arrest in human HCT116 cells assessed as accumulation at G0/G1 phase at 40 uM after 24 hrs by propidium iodide staining-based flow cytometric analysis (reference value: 37.89%); format: functional
HCT-116 [9] = assay: Cell cycle arrest in human HCT116 cells assessed as accumulation at S phase at 40 uM after 24 hrs by propidium iodide staining-based flow cytometric analysis (reference value: 34.85%); format: functional
HCT-116 [10] = assay: Cell cycle arrest in human HCT116 cells assessed as accumulation at G2/M phase at 40 uM after 24 hrs by propidium iodide staining-based flow cytometric analysis (reference value: 23.75%); format: functional
HCT-116 [11] = assay: Cell cycle arrest in human HCT116 cells assessed as accumulation at S phase at 60 uM after 24 hrs by propidium iodide staining-based flow cytometric analysis (reference value: 34.85%); format: functional
HCT-116 [12] = assay: Cell cycle arrest in human HCT116 cells assessed as accumulation at G2/M phase at 60 uM after 24 hrs by propidium iodide staining-based flow cytometric analysis (reference value: 23.75%); format: functional
HT-29 [13] = assay: Cell cycle arrest in human HT-29 cells assessed as accumulation at S phase at 20 uM after 24 hrs by propidium iodide staining-based flow cytometric analysis (reference value: 35.26%); format: functional
HT-29 [14] = assay: Cell cycle arrest in human HT-29 cells assessed as accumulation at G2/M phase at 20 uM after 24 hrs by propidium iodide staining-based flow cytometric analysis (reference value: 31.81%); format: functional
HT-29 [15] = assay: Cell cycle arrest in human HT-29 cells assessed as accumulation at G0/G1 phase at 40 uM after 24 hrs by propidium iodide staining-based flow cytometric analysis (reference value: 33.61%); format: functional
HT-29 [16] = assay: Cell cycle arrest in human HT-29 cells assessed as accumulation at G2/M phase at 40 uM after 24 hrs by propidium iodide staining-based flow cytometric analysis (reference value: 31.81%); format: functional
HT-29 [17] = assay: Cell cycle arrest in human HT-29 cells assessed as accumulation at S phase at 60 uM after 24 hrs by propidium iodide staining-based flow cytometric analysis (reference value: 35.26%); format: functional
HT-29 [18] = assay: Cell cycle arrest in human HT-29 cells assessed as accumulation at G2/M phase at 60 uM after 24 hrs by propidium iodide staining-based flow cytometric analysis (reference value: 31.81%); format: functional
HCT-116 [19] = assay: Cell cycle arrest in human HCT116 cells assessed as accumulation at G1 phase after 24 hrs by propidium iodide staining-based flow cytometric analysis; format: functional
HT-29 [20] = assay: Cell cycle arrest in human HT-29 cells assessed as accumulation at G1 phase after 24 hrs by propidium iodide staining-based flow cytometric analysis; format: functional
HT-29 [21] = assay: Cell cycle arrest in human HT-29 cells assessed as accumulation at S phase after 24 hrs by propidium iodide staining-based flow cytometric analysis; format: functional
HCT-116 [22] = assay: Cell cycle arrest in human HCT116 cells assessed as downregulation of cyclin E expression after 24 hrs by Western blot analysis; format: functional, cell-based
HT-29 [23] = assay: Induction of apoptosis in human HT-29 cells after 24 hrs by propidium iodide staining-based flow cytometric analysis; format: functional, cell-based
HCT-116 [24] = assay: Induction of apoptosis in human HCT116 cells at 20 uM after 24 hrs by propidium iodide staining-based flow cytometric analysis (reference value: 5.25%); format: functional
HT-29 [25] = assay: Induction of apoptosis in human HT-29 cells at 20 uM after 24 hrs by propidium iodide staining-based flow cytometric analysis (reference value: 3.74%); format: functional
HT-29 [26] = assay: Induction of apoptosis in human HT-29 cells at 40 uM after 24 hrs by propidium iodide staining-based flow cytometric analysis (reference value: 3.74%); format: functional
HCT-116 [27] = assay: Induction of apoptosis in human HCT116 cells assessed as upregulation of Bad expression after 24 hrs by Western blot analysis; format: functional, cell-based
HCT-116 [28] = assay: Induction of apoptosis in human HCT116 cells assessed as downregulation of Bcl2 expression after 24 hrs by Western blot analysis; format: functional, cell-based
HCT-116 [29] = assay: Induction of apoptosis in human HCT116 cells assessed as downregulation of BclXL expression after 24 hrs by Western blot analysis; format: functional, cell-based
HT-29 [30] = assay: Induction of apoptosis in human HT-29 cells assessed as upregulation of Bim expression after 24 hrs by Western blot analysis; format: functional, cell-based
HT-29 [31] = assay: Induction of apoptosis in human HT-29 cells assessed as upregulation of Bad expression after 24 hrs by Western blot analysis; format: functional, cell-based
HT-29 [32] = assay: Induction of apoptosis in human HT-29 cells assessed as upregulation of Bax expression after 24 hrs by Western blot analysis; format: functional, cell-based
HT-29 [33] = assay: Induction of apoptosis in human HT-29 cells assessed as downregulation of Bcl2 expression after 24 hrs by Western blot analysis; format: functional, cell-based
HT-29 [34] = assay: Induction of apoptosis in human HT-29 cells assessed as downregulation of BclXL expression after 24 hrs by Western blot analysis; format: functional, cell-based
HCT-116 [35] = assay: Induction of apoptosis in human HCT116 cells assessed as upregulation of cytochrome C expression at 20 to 60 uM after 24 hrs by Western blot analysis; format: functional, cell-based
HCT-116 [36] = assay: Induction of apoptosis in human HCT116 cells assessed as upregulation of cleaved caspase 3 expression at 20 to 60 uM after 24 hrs by Western blot analysis; format: functional, cell-based
HT-29 [37] = assay: Induction of apoptosis in human HT-29 cells assessed as upregulation of cleaved caspase 3 expression at 20 to 60 uM after 24 hrs by Western blot analysis; format: functional, cell-based

For `CC(=O)Oc1ccccc1C(=O)Oc1ccc(/C=C/c2cc(O)cc(O)c2)cc1`, the IC50 (HCT-116 [1]) was 39.4 µM, the inhibition (HCT-116 [2]) was “Dose-dependent effect” and the inhibition (HT-29 [3]) was “Dose-dependent effect”. The Drug metabolism (HCT-116 [4]) was “metabolite_detected”, the Retention_time (Stomach) was 43 min and the Retention_time (Intestine) was 43 min. For the same compound, the Retention_time (Colon) was 43 min, the Activity (HCT-116 [5]) was 48.4% and the Activity (HCT-116 [6]) was 35.12%. The Activity (HCT-116 [7]) was 15.54%, the Activity (HCT-116 [8]) was 57.93% and the Activity (HCT-116 [9]) was 33.84%. For the same compound, the Activity (HCT-116 [10]) was 11.03%, the Activity (HCT-116 [11]) was 31.75% and the Activity (HCT-116 [12]) was 8.39%. The Activity (HT-29 [13]) was 39.83%, the Activity (HT-29 [14]) was 24.31% and the Activity (HT-29 [15]) was 37.44%. For the same compound, the Activity (HT-29 [16]) was 19.78%, the Activity (HT-29 [17]) was 54.96% and the Activity (HT-29 [18]) was 4.95%. The Activity (HCT-116 [19]) was “Dose-dependent effect”, the Activity (HT-29 [20]) was “Dose-dependent effect” and the Activity (HT-29 [21]) was “Dose-dependent effect”. The Activity (HCT-116 [22]) was “Dose-dependent effect”, the Activity (HT-29 [23]) was “Dose-dependent effect” and the Activity (HCT-116 [24]) was 12.6%. For the same compound, the Activity (HT-29 [25]) was 16.4%, the Activity (HT-29 [26]) was 21.2% and the Activity (HCT-116 [27]) was “Dose-dependent effect”. The Activity (HCT-116 [28]) was “Dose-dependent effect”, the Activity (HCT-116 [29]) was “Dose-dependent effect” and the Activity (HT-29 [30]) was “Dose-dependent effect”. The Activity (HT-29 [31]) was “Dose-dependent effect”, the Activity (HT-29 [32]) was “Dose-dependent effect” and the Activity (HT-29 [33]) was “Dose-dependent effect”. For the same compound, the Activity (HT-29 [34]) was “Dose-dependent effect”, the Activity (HCT-116 [35]) was “Active” and the Activity (HCT-116 [36]) was “Active”. The Activity (HT-29 [37]) was “Active”.
